The text below walks through data of patent publication US20110306579A1, “METHODS OF NEUROPROTECTION USING NEUROPROTECTIVE STEROIDS AND A VITAMIN D” (EMORY UNIVERSITY, priority 2009, published 2011).

Where a name gives a salt, the structure may show the parent alone.

For series [1], the system named is E18 rat primary cortical neurons. Nature of the series: Morphological analysis of cortical cultures (phase contrast). Type of series: cell-based. As to conditions: glutamate 0.5 μM for 24 h; data not shown. From the text:
Changes in the morphology of neurons treated with different drugs in various groups were observed using a phase-contrast microscope (Nikon). Primary cultures were mainly observed for neurite outgrowth, a hallmark feature of healthy cells, and the density of healthy cells in different groups.

A further series relates to MAPK (ERK1/2). Nature of the series: MAPK phosphorylation (p-ERK1/2 Western blot) in primary cortical neurons. Type of series: cell-based, rat. As to conditions: VDH 100 nM, 30-minute treatment. On the procedure:
PROG and VDH were added to the primary cultures, as described above, for 30 minutes ([…], et al., (2002) Endocrinology 143: 205-212) and the cells were lysed using RIPA lysis buffer kit (sc-24948, Santa Cruz, Calif., USA). Protein was determined in cell lysates by bicinchoninic acid (BCA) protein assay (Cat. # 23225, Pierce, Rockford, Ill., USA). Cell lysates (40 μg protein each sample) were separated under reducing and denaturing conditions by 12.5% acrylamide Criterion gel (BioRad, Hercules, Calif., USA) at 200V for 1 hour and transferred to a polyvinylidene difluoride (PVDF) membrane at 100V for 30 minutes. The non-specific binding sites of the membrane were blocked with 5% non-fat dry milk in PBS-T (phosphate buffered saline containing 0.05% Tween-20). […] Membranes were then incubated in horseradish peroxidase (HRP)-conjugated secondary antibody (Goat anti-rabbit IgG; 074-1506, KPL, Gaithersburg, Md., USA). β-actin was probed as a loading control. Blots were developed using a chemiluminescent substrate (Pierce) for 5 minutes.

The test system of series [2] is 20-month-old male Fischer 344 rats. Kind of series: Spontaneous locomotor activity (open field) after TBI. The class given is in vivo, rat. To be noted: 72 hours after injury; normalized to sham.
Source text: The animals in this study were separated into two groups, vitamin D normal (D-normal) and vitamin D deficient (D-deficient). […] Animals in the D-deficient group were maintained on the diet for at least 21 days prior to surgery. […] For this same reason the null diet was not altered in any other way, and the rats assigned to the D-deficient group were maintained on it until they were killed for harvesting of brain tissue. Since vitamin D is activated by UVB light (280-315 nm wavelength), the overhead lights were modified to not produce radiation in this range.
Animals dehydrated due to blood loss were given 3 mL of lactated Ringer's solution subcutaneously within 6 hours of injury.
Animals were assigned to D-normal or D-deficicnt groups. […] The same assignment was followed for both 24-hour and 72-hour survival groups. […] All drug treatments were dissolved in vehicle, and injection volume was equally proportional to each animal's weight across all groups. The intact sham (SHAM) groups served to provide baseline data and therefore received no injury or injections.
In addition to molecular measures of inflammatory cytokines, the behavioral effects of the various treatments were examined. Since this study was limited to the short term effects on inflammation, only short-term Spontaneous Locomotor Activity was used.
Series [3] deals with E18 rat primary cortical neurons. Kind of series: Glutamate-induced excitotoxic cell death (LDH release and MTT reduction assays). Type of series: cell-based. From the text:
Lactate dehydrogenase (LDH) release and 3-(4,5-dimethylthiazol-2-yl)-2,5-diphenyltetrazolium bromide (MTT) reduction assays were used to measure cell death. NeuroPureTM E18 primary rat cortical cells were commercially procured (Catalogue # N200200, Genlantis, San Diego, Calif., USA) as micro-surgically dissected regions from day 18 embryonic Sprague-Dawley rat brain. The tissues were processed for culturing according to manufacturer specifications. Briefly, enzymatic pre-treatment of the tissue was done prior to mechanical dissociation by incubating the tissues in sterile NeuroPapain enzyme solution at 30° C. for 30 minutes. Following incubation, the cells were centrifuged and transferred to fresh plating medium, where they were then dissociated into isolated neurons using a P-1000 pipettor with a sterile 1 ml plastic tip (0.8-1.0 mm diameter opening). The cells were again centrifuged and seeded in multi-well plates pre-coated with poly-D-lysine (0.15 ml/cm^2, 50 μg/ml) and maintained at 37° C. in a humidified 5% CO2 atmosphere. All experiments were performed after 9-10 days in culture. Twenty-four hours before glutamate exposure, cultures were pre-treated with both PROG (Cat. #P3972; Sigma Aldrich, St. Louis, Mo., USA) and VDH(Cat. #D1530; Sigma) separately or in combination with VDH at various concentrations. Stock solutions of PROG and VDH were prepared in dimethylsulfoxide (DMSO; Cat. #D2650; […] Glutamate was diluted in phosphate-buffered saline (PBS, pH 7.4). All reagents were filter sterilized before being added to cultures. At Day 11, cortical neurons in fresh media were separated into five treatment groups: (i) control; (ii) 24 hour treatment with 0.5 μM glutamate (Sribnick E A, et al., (2004) J Neurosci Res 76: 688-696); ([…]) with subsequent exposure to glutamate for 24 hours; (iv) 24 hour pre-treatment with VDH (1, 5, 10, 20, 40, 80, 100 nM) with subsequent exposure to glutamate for 24 hours; (v) 24 hour pre-treatment with different combinations of PROG and […]: 20 μM+VDH: 1, 5, 10, 20, 40, 80, 100 nM) with subsequent exposure to glutamate for 24 hours. Two widely accepted assays (LDH release and MTT reduction assay) for the measurement of cell viability were used. These assays are considered very reliable and reproducible with high predictive validity and are widely used in various pharmacological studies ([…], et al., (2002) Endocrinology 143: 205-212.). The LDH assay was performed as follows. […] LDH activity was measured using a Cytotoxicity Detection Kit (Roche Molecular Biochemicals, Indianapolis, Ind., USA) and quantitated by measuring absorbance at 490 nm. Data were normalized against the amount of LDH activity released from vehicle-treated control cultures receiving no glutamate. Neuronal death was also assessed by MTT [3-(4,5-dimethylthiazol-2-yl)-2,5-diphenyltetrazolium bromide] assay, which is based on the cleavage of the tetrazolium ring of the pale yellow MTT into dark blue formazan crystals by mitochondrial dehydrogenase enzyme in viable cells. These blue formazan crystals accumulate within the cells due to their impermeability to cell membrane, and are then solubilized by adding DMSO. The intensity of blue colored formazan solution is directly proportional to the number of surviving cells. Concentrations were determined by photometric analysis. Briefly, 10 μl of MTT were added per well and incubated at 37° C. for 4 hours until purple precipitate was visible. DMSO (50 μl) was added to solubilize the crystals and the absorbance was read at 570 nm.

Series [4] deals with 20-month old Fischer 344 rats. Kind of series: Cerebral edema analysis after cortical contusion brain injury. The class given is in vivo, rat. To be noted: 4 mg/kg; for edema compared to subjects treated with vehicle: 24 hours post brain injury; for mean % difference edema: brain tissue 24 hours post brain injury, i.p. at 1 h, s.c. at 6 and 24 h. The method, then: The methodology used is described in VanLandingham et al., Neuropharmacology, 2006, 51, 1078-1085.
Sterile surgical procedures were used to prevent animal infection. Rats (20-month old Fischer 344 rats, which are the “human” equivalent of about 60 years old) were anesthetized and maintained on isoflurane and an equivalent amount of […] and O2 for 3 min prior to surgery. After brain contusion, O2 levels were doubled compared to […] and maintained through the reainder of the surgery procedure. A stereotaxic apparatus was used to stabilize the head in a horizontal position. Core body temperature was monitored and maintained at 37° C. using a Harvard homeothermic blanket (Harvard Apparatus, Holliston, Mass.). There was no direct measure used to deterct brain temperature. Blood oxygen and heart rate were maintained using a SurgiVet monitor (SurgiVet, Waukesha, Wis.) and maintained above 90% and 340 bpm respectively. A midline incision was made and the scalp retracted. A bilateral 6-mm craniotomy was performed with surgical drill centered at 3 mm rostral to bregma. The stainless steel impactor was positioned over the MFC at 3.0 mm A/P and 0.0 M/L. These coordinates represent the MFC as described by Paxinos and Watson (The Rat Brain in Stereotaxic Coordinates, Academic Press, San Diego, 1986). The cortical injury was induced using a pneumatically controlled device (Hoffman et al., J. Neurotrauma, 1994, 11, 417-431). Brain impact duration was 0.5 s. using a 5-mm impactor tip with a velocity set at 2.125 m/s and a cortical depth of 2 mm. Following the contusion, bleeding was halded and fascia and scalp were sutured shut. After surgery, animals were allowed to recover from anesthesia on a homeothermic heating blanket in a holding cage until awake. sham surgeries controlled for anesthesia and stress. All surgical procedures were the same, except that sham rates were not given a craniotomy or cortical injury. Previous studies using craniotomy as a control found no differences between shams with or without this procedure. (Goss et al., Pharmacol. Biochem. Behay. 2003, 76(2), 231-242).
These experimental solutions were then diluted 1:1 with sterile water for a final concentration of HBC of 22.5%.
All injections were done at the same time with brain harvesting at 24 h post-injury. Rats in each group were weightd prior to treatment to ensure proper dosage. The first injection at 1 h after surgery was given intraperitoneally to ensure rapid adsorption. All subsequent injections were made subcutaneously for gradual adsorption at 6 and 24 h. Injection times and neurosteroid doses were based on previous results of neurosteroid treatment (Roof et al., Twenty First Annual Meeting of the Society for Neuroscience, Miami Beach Fla., p. 191 and He et al., Exp. Neurol. 2004, 189, 404-412). The sterioids were dissolved in vehicle (22.5% 2-hydroxypropyl-b-cyclodextrin solution) at 4 mg/kg. The sham group received no treatment and injury control group received vehicle only.
At 24 h after traumatic brain injury flresh brains were extracted from the skull and the dorsal cerebrum was separated along the line of the lateral fissure. Four 3-mm coronal sections were cut rostral to caudal, placed in pre-weighed 1.5 mL tubes and re-weighed (wet weight). Tubes were then left uncapped and placed in a vacuum oven set at 60° C. with an atmospheric pressure of 0.3 for 48 h. Following tube recapping, the tissue samples were again weighed (dry weight). Cerebral edema (% water content) was determined as the difference in wet and dry weights divided by wet weight (Roof and Stein Restor. Neurol. Ncurosci., 1992, 4, 425-427). Edema measures are reflective of the difference inwater content between at the average of the two most rostral (injury region) segments and most caudal (occipital cortex) segments of the dorsal sections of the brain.

The target in series [5] is T1, vitamin D binding protein (DBP) (Homo sapiens, UniProt P02774).
T1 construct: host or cells: serum
T1 sequence (P02774 17-474): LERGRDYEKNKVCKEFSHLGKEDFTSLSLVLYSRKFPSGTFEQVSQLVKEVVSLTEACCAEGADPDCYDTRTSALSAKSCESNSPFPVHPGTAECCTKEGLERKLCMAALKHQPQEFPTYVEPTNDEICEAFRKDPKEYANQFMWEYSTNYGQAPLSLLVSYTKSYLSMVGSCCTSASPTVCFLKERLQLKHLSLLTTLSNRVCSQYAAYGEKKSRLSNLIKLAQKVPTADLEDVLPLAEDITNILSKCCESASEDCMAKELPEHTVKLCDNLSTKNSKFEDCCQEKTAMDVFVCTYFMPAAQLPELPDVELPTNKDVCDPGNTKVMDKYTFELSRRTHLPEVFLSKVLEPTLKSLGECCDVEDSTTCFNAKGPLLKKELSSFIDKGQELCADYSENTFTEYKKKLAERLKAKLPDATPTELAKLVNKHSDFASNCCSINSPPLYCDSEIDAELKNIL
To be noted: cited from earlier work.

Series [6] relates to rat model of peripheral nerve injury. As to conditions: 100 IU/kg/day following nerve injury; cited from earlier work.
The conditions of series [7]: Phase 1 and Phase 2 human trials; cited from earlier work.

`C=C1/C(=C\C=C2/CCC[C@]3(C)[C@@H]([C@H](C)CCCC(C)(C)O)CC[C@@H]23)C[C@@H](O)C[C@@H]1O` [VDH, 1,25-dihydroxyvitamin D3]: in series [1], the “morphology of neurons (neuronal processes, number of neurons) after glutamate” value is listed as “rescued neurons”. In addition, the “increase in p-ERK1/2 level compared to control group” value in the series on MAPK (ERK1/2) was found to be 1.7 ×. Besides, the “spontaneous locomotor activity (total distance, resting, stereotypy, movement time)” value in series [2] is on record as “little or no benefit”. Further, in series [3] (LDH and MTT assays), the “best (most effective) concentration alone against glutamate-induced neuronal death” value came out at 0.1 µM. Moreover, the “shape of concentration response curve for neuroprotection against glutamate toxicity” value in series [3] (VDH alone, or PROG 20 μM with VDH 1-100 nM) is recorded as “U-shaped”. Further, the “neuroprotection against glutamate toxicity compared to vehicle-only group” value in series [3] (VDH higher concentrations (1-10 μM)) is “did not prevent neuronal loss”; in series [3] (VDH lower concentrations (0.001-0.5 μM), P<0.001), “significantly protective”.
For the compound `CC(C)[C@H](N)C(=O)O[C@@H](C)[C@H]1CCC2C3CCC4=CC(=O)CC[C@]4(C)C3CC[C@@]21C` (stereo partly drawn) [Compound 57, 20-S-L-Valine-progesterone HCl salt], in series [4], the “edema compared to subjects treated with vehicle” value was “decrease in edema” and the “mean % difference edema” value is on record as 3.3%.
With `CC(=O)[C@H]1CCC2C3CCC4=C[C@@H](OC(=O)[C@@H](N)C(C)C)CC[C@]4(C)C3CC[C@@]21C` (stereo partly drawn) [Compound 31, 3β-L-Valine-progesterone-HCl], in series [4], the “edema compared to subjects treated with vehicle” value is on record as “decrease in edema” and the “mean % difference edema” value was 2.2%.
In the case of `C=C1CC[C@H](O)C/C1=C/C=C1\CCC[C@]2(C)[C@@H]([C@H](C)CCCC(C)(C)O)CC[C@@H]12` [Compound 25OHD3, 25-hydroxyvitamin D3], the “fraction of total in serum bound by DBP” value in series [5] was “about 88%”.
`CC(=O)[C@H]1CCC2C3CCC4=C/C(=N/OC(=O)[C@@H](N)Cc5c[nH]c6ccccc56)CC[C@]4(C)C3CC[C@@]21C` (stereo partly drawn) [Compound 79, O-L-Tryptophan-C3-oxime-progesterone HCl salt]: in series [4], the “edema compared to subjects treated with vehicle” value is reported as “decrease in edema” and the “mean % difference edema” value was 1.9%.
Take `C=C1CC[C@H](O)C/C1=C/C=C1\CCC[C@]2(C)[C@@H]([C@H](C)/C=C/[C@H](C)C(C)C)CC[C@@H]12` [vitamin D2, ergocalciferol]: the “axogenesis and axon diameter” value in series [6] is “significantly increased axogenesis and axon diameter”.
Regarding `CC(=O)[C@H]1CC[C@H]2[C@@H]3CC[C@H]4C[C@](C)(O)CC[C@]4(C)[C@H]3CC[C@]12C` [ganaxolone, 3a-hydroxy-3b-methyl-5a-pregnan-20-one], the tolerability result in series [7] was “well tolerated”.
